Measurements as given in US20250186445A1, “TREATMENT OF CANCER WITH MENIN INHIBITORS AND IMMUNO-ONCOLOGY AGENTS” (University Health Network, priority 2022, published 2025).
“Also recorded” adds a separate entry of the source.

Experiments:
CT26 cells = assay: Cytokine gene expression in CT26 cells in 2D culture treated with Compound I; type: cell-based, mouse; details: FIG. 5A
MC38 cells = assay: Cytokine gene expression in MC38 cells in 2D culture treated with Compound I; type: cell-based; details: FIG. 5B
[1] = tested on: CT26 colorectal carcinomas; assay: CT26 colorectal carcinoma tumor growth in immunocompetent (BALB/c) mice; type: in vivo, mouse
Text: Effects of Compound I in combination with PD-L1/PD-1 immune checkpoint blockade on tumor growth were investigated in CT26 tumors.

## CNc1nc(NC2CCN(Cc3ccc4c(cc(C#N)n4C[C@H](C)N4CCN(S(C)(=O)=O)CC4)c3C)CC2)c2cc(CC(F)(F)F)sc2n1 [Compound I]
CT26 cells
  induction of cytokine-related genes (IL33, CXCL10, CXCL9, CD40, CCL4): Dose-dependent induction; also recorded: induces cytokine gene expression
MC38 cells
  cytokine gene expression: induces cytokine gene expression
[1]; BALB/c mice bearing CT26, 100 mg/kg orally QD, FIG. 6A
  tumor growth: reduced tumor growth
[1]; CT26 tumors in BALB/c mice, FIGS. 6B-C
  CD8+ T-cell infiltration: increased CD8+ T-cell infiltration
[1]; CT26 tumors in BALB/c mice, concomitant anti-CD8 antibody, FIG. 6D
  reduction in tumor growth with concomitant anti-CD8 antibody: could be blocked
[1]; CT26 tumors, combination with anti-PD-1 antibody, FIG. 7
  CT26 tumor growth, combination of Compound I and anti-PD-1 antibody: the combination enhanced the activity of anti-PD1 immunotherapy
[1]; CT26 tumors, each agent alone, FIG. 7
  CT26 tumor growth, single agent: substantially reduced
